Patent publication US10219516B2, “Molecules having pesticidal utility, and intermediates, compositions, and processes, related thereto” (priority 2015, dated 2019)

Legend:
Type in all cases: in vivo
[1] = test system: Beet Armyworm (Spodoptera exigua, LAPHEG); test: Bioassay on Beet Armyworm (BAW), 128-well diet tray assay; conditions: Species BAW (Beet Armyworm), read-out: BAW (Biological Results, rating)
Summary of the method: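 Diet tray, 8 wells/compound; 50 μg/cm^2 applied to diet surface (90:10 acetone-water), dried. 1–5 L2 larvae/well; 25° C., 14:10 L:D, 5–7 d. Read-out: % mortality, mean of 8 wells.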

[2] = test system: Cabbage Looper (Trichoplusia ni, TRIPNI); test: Bioassay on Cabbage Looper (CL), 128-well diet tray assay; conditions: Trichoplusia ni; Species CL (Cabbage Looper); read-out: CL (Biological Results, rating)
Summary of the method: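 Diet-incorporation-free surface assay: 50 μg/cm^2 compound in acetone-water (90:10), dried on diet; 1–5 2nd-instar larvae/well; 8 wells; vented cover; 25° C., 14:10 L:D, 5–7 d; % mortality averaged over wells.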

[3] = test system: Yellow Fever Mosquito (Aedes aegypti, AEDSAE); test: Bioassay on Yellow Fever Mosquito (YFM), 96-well plate larval assay; conditions: for YFM (Biological Results, rating): Species YFM (Yellow Fever Mosquito); for YFM rating: Yellow Fever Mosquito, 96-well plate larval assay
Description: Certain molecules disclosed in this document were tested against YFM using procedures described in the following paragraph. In the reporting of the results, the “GPA & YFM Rating Table” was used (See Table Section).
Master plates containing 400 μg of a molecule dissolved in 100 μL of dimethyl sulfoxide (DMSO) (equivalent to a 4000 ppm solution) are used. A master plate of assembled molecules contains 15 μL per well. To this plate, 135 μL of a 90:10 water/acetone mixture is added to each well. A robot is programmed to dispense 15 μL aspirations from the master plate into an empty 96-well shallow plate (“daughter” plate). There are 6 reps (“daughter” plates) created per master. The created “daughter” plates are then immediately infested with YFM larvae.
The day before plates are to be treated, mosquito eggs are placed in Millipore water containing liver powder to begin hatching (4 g. into 400 mL). After the “daughter” plates are created using the robot, they are infested with 220 μL of the liver powder/larval mosquito mixture (about 1 day-old larvae). After plates are infested with mosquito larvae, a non-evaporative lid is used to cover the plate to reduce drying. Plates are held at room temperature for 3 days prior to grading. After 3 days, each well is observed and scored based on mortality. The results are indicated in the table entitled “Table ABC: Biological Results” (See Table Section).

SMILES | pest or weed control at 50 µg/cm2 [1] [%] | pest or weed control at 50 µg/cm2 [2] [%] | YFM (Biological Results, rating) [3] | YFM rating [3]
O=C(Nc1ccc(F)cc1)c1cc(NC(=O)[C@H]2[C@H](c3cc(Cl)cc(Cl)c3)C2(Cl)Cl)ccc1C(F)(F)F (relative stereo) [F3, trans-5-(2,2-Dichloro-3-(3,5-dichlorophenyl)cyclopropane-1-carboxamido)-N-(4-fluorophenyl)-2-(trifluoromethyl)benzamide] | 50 to 100 | 50 to 100 | A (80-100) | 
O=C(Nc1ccc(F)cc1)c1cc(NC(=O)[C@H]2[C@H](c3cc(Cl)cc(Cl)c3)C2(Cl)Cl)ccc1I (relative stereo) [F4, trans-5-(2,2-Dichloro-3-(3,5-dichlorophenyl)cyclopropane-1-carboxamido)-N-(4-fluorophenyl)-2-iodobenzamide] | 50 to 100 | 50 to 100 | A (80-100) | 
O=C(Nc1ccc(F)cc1)c1cc(NC(=O)[C@H]2[C@H](c3cc(Cl)cc(Cl)c3)C2(Cl)Cl)ccc1-n1cncn1 (relative stereo) [F12, trans-5-(2,2-Dichloro-3-(3,5-dichlorophenyl)cyclopropane-1-carboxamido)-N-(4-fluorophenyl)-2-(1H-1,2,4-triazol-1-yl)benzamide] | 50 to 100 | 50 to 100 | A (80-100) | 
O=C(Nc1ccc(F)cc1)c1cc(NC(=O)[C@H]2[C@H](c3cc(Cl)cc(Cl)c3)C2(Cl)Cl)c(Cl)cc1Cl (relative stereo) [F250, trans-2,4-Dichloro-5-(2,2-dichloro-3-(3,5-dichlorophenyl)cyclopropane-1-carboxamido)-N-(4-fluorophenyl)benzamide] | 0 to 50 |  | B (More than 0-Less than 80) | 
O=C(Nc1ccccc1)c1cc(NC(=O)[C@H]2[C@H](c3cc(Cl)cc(Cl)c3)C2(Cl)Cl)c(Cl)cc1Cl (relative stereo) [F254, trans-2,4-Dichloro-5-(2,2-dichloro-3-(3,5-dichlorophenyl)cyclopropane-1-carboxamido)-N-phenylbenzamide] |  |  | A (80-100) | 
O=C(Nc1ccc(Cl)nn1)c1cc(NC(=O)[C@H]2[C@H](c3cc(Cl)cc(Cl)c3)C2(Cl)Cl)ccc1Cl (relative stereo) [PF148, trans-2-Chloro-N-(6-chloropyridazin-3-yl)-5-(2,2-dichloro-3-(3,5-dichlorophenyl)cyclopropane-1-carboxamido)benzamide] |  |  |  | A (80-100)
O=C(Nc1ncc(F)cc1F)c1cc(NC(=O)[C@H]2[C@H](c3cc(Cl)cc(Cl)c3)C2(Cl)Cl)ccc1Cl [F309, 2-Chloro-5-((1R,3R)-2,2-dichloro-3-(3,5-dichlorophenyl)cyclopropane-1-carboxamido)-N-(3,5-difluoropyridin-2-yl)benzamide] |  |  | A (80-100) | 
O=C(Nc1cc(F)cc([N+](=O)[O-])c1)c1cc(NC(=O)[C@H]2[C@H](c3cc(Cl)cc(Cl)c3)C2(Cl)Cl)ccc1Cl [F415, 2-Chloro-5-((1R,3R)-2,2-dichloro-3-(3,5-dichlorophenyl)cyclopropane-1-carboxamido)-N-(3-fluoro-5-nitrophenyl)benzamide] |  |  |  | A (80-100)
O=C(Nc1ccc(F)cc1F)c1cc(NC(=O)C2C(c3cc(F)c(F)c(F)c3)C2(Cl)Cl)ccc1Cl (stereo not drawn) [F582, 2-Chloro-5-cis-(2,2-dichloro-3-(3,4,5-trifluorophenyl)cyclopropane-1-carboxamido)-N-(2,4-difluorophenyl)benzamide] |  |  |  | A (80-100)
N#Cc1ccc(NC(=O)c2cc(NC(=O)C3C(c4cc(Cl)cc(Cl)c4)C3(Cl)Cl)ccc2Cl)cc1Cl (stereo not drawn) [PF120, 2-Chloro-N-(3-chloro-4-cyanophenyl)-5-(trans)-2,2-dichloro-3-(3,5-dichlorophenyl)cyclopropane-1-carboxamido)benzamide] |  |  |  | A (80-100)
